Measured values as given in EP4755888A1 (ILAb Co., Ltd., priority 2023, dated 2025).

Target: PD-1/PD-L1 (Homo sapiens, UniProt Q9NZQ7)
Assay: TR-FRET PD-1/PD-L1 binding inhibition at the molecular level (free proteins)
Details: Tag1-PD-L1 and Tag2-PD-1 proteins, twelve concentrations from 200 nM, 2 hours at room temperature, read-out: FRET assay (IC50)
Method in brief: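 HTRF read-out at 665/620 nm after 2 h at room temperature. Detection used anti-Tag1 Eu cryptate plus anti-Tag2 XL665 antibodies. Tagged PD-L1 and PD-1 proteins were pre-mixed with compound across twelve […] 1:2 dilutions starting at 200 nM.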

Sequence of PD-1/PD-L1 (Q9NZQ7 19-238 limits assumed): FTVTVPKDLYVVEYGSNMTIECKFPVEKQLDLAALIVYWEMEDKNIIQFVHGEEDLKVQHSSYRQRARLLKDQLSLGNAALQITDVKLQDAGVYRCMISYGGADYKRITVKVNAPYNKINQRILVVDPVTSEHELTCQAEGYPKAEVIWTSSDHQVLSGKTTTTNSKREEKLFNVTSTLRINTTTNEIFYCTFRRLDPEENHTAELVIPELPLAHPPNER

In the case of O=C(Nc1cccc(-c2cccc(Nc3nccc4cc(CN5CC[C@@H](O)C5)cnc34)c2Cl)c1Cl)c1cc2n(n1)CCCN2CCO [Compound 322, (R)-N-(2,2'-dichloro-3'-((3-((3-hydroxypyrrolidin-1-yl)methyl)-1,7-naphthyridin-8-yl)amino)-[1,1'-biphenyl]-3-yl)-4-(2-hydroxyethyl)-4,5,6,7-tetrahydropyrazolo[1,5-a]pyrimidine-2-carboxamide], the IC50 is reported as 10 to 100 nM.
Compound O=C(Nc1cccc(-c2cccc(Nc3nccc4cc(CN5CC[C@@H](O)C5)cnc34)c2Cl)c1Cl)c1cc2n(n1)CCN(CCO)C2 [Compound 323, (R)-N-(2,2'-dichloro-3'-((3-((3-hydroxypyrrolidin-1-yl)methyl)-1,7-naphthyridin-8-yl)amino)-[1,1-biphenyl]-3-yl)-5-(2-hydroxyethyl)-4,5,6,7-tetrahydropyrazolo[1,5-a]pyrazine-2-carboxamide] has an IC50 of 10 to 100 nM.
Work on O=C(O)CN1CCn2nc(C(=O)Nc3cccc(-c4cccc(Nc5nccc6cc(CN7CC[C@@H](O)C7)cnc56)c4Cl)c3Cl)cc2C1 [Compound 324, (R)-2-(2-((2,2'-dichloro-3'-((3-((3-hydroxypyrrolidin-1-yl)methyl)-1,7-naphthyridin-8-yl)amino)-[1,1'-biphenyl]-3-yl)carbamoyl)-6,7-dihydropyrazolo[1,5-a]pyrazin-5(4H)-yl)acetic acid] yielded an IC50 of under 10 nM.
Compound Cc1c(NC(=O)c2ccc(CN3CC[C@@H](O)C3)cn2)cccc1-c1cccc(NC(=O)c2cc3n(n2)CCN(CCO)C3)c1C [Compound 325, (R)-5-(2-hydroxyethyl)-N-(3'-(5-((3-hydroxypyrrolidin-1-yl)methyl)picolinamido)-2,2'-dimethyl-[1,1'-biphenyl]-3-yl)-4,5,6,7-tetrahydropyrazolo[1,5-a]pyrazine-2-carboxamide] has an IC50 of under 10 nM.
With Cc1c(NC(=O)c2ccc(CN3CC[C@@H](O)C3)cn2)cccc1-c1cccc(NC(=O)c2cc3n(n2)CCN(CC(=O)O)C3)c1C [Compound 326, (R)-2-(2-((3'-(5-((3-hydroxypyrrolidin-1-yl)methyl)picolinamido)-2,2'-dimethyl-[1,1'-biphenyl]-3-yl)carbamoyl)-6,7-dihydropyrazolo[1,5-a]pyrazin-5(4H)-yl)acetic acid] the IC50 was under 10 nM.
Work on Cc1c(NC(=O)c2cc3n(n2)CCN(CCO)C3)cccc1-c1cccc(Nc2nc(C(F)F)nc3cc(CN4CC[C@@H](O)C4)cnc23)c1C [Compound 327, (R)-N-(3'-((2-(difluoromethyl)-7-((3-hydroxypyrrolidin-1-yl)methyl)pyrido[3,2-d]pyrimidin-4-yl)amino)-2,2'-dimethyl-[1,1'-biphenyl]-3-yl)-5-(2-hydroxyethyl)-4,5,6,7-tetrahydropyrazolo[1,5-a]pyrazine-2-carboxamide] yielded an IC50 of under 10 nM.
Cc1c(NC(=O)c2cc3n(n2)CCN(CC(=O)O)C3)cccc1-c1cccc(Nc2nc(C(F)F)nc3cc(CN4CC[C@@H](O)C4)cnc23)c1C [Compound 328, (R)-2-(2-((3'-((2-(difluoromethyl)-7-((3-hydroxypyrrolidin-1-yl)methyl)pyrido[3,2-d]pyrimidin-4-yl)amino)-2,2'-dimethyl-[1,1'-biphenyl]-3-yl)carbamoyl)-6,7-dihydropyrazolo[1,5-a]pyrazin-5(4H)-yl)acetic acid] showed an IC50 of under 10 nM.
Compound O=C(Nc1cccc(-c2cccc(Nc3nc(C(F)(F)F)nc4cccnc34)c2Cl)c1Cl)c1cc2n(n1)CCC[C@@H]2N1CC[C@@H](O)C1 [Compound 333, (S)-N-(2,2'-dichloro-3'-((2-(trifluoromethyl)pyrido[3,2-d]pyrimidin-4-yl)amino)-[1,1'-biphenyl]-3-yl)-4-((R)-3-hydroxypyrrolidin-1-yl)-4,5,6,7-tetrahydropyrazolo[1,5-a]pyridine-2-carboxamide] has an IC50 of 10 to 100 nM.
